{"source": "patent US6660846B1", "about": "“Vesicular amino acid transporter composition and method” (The Regents of the University of CA, priority 1997, dated 2003)", "key": {"[1]": {"biological_target": "T1, rVGAT (RUNC-47, rat unc-47 homologue) (Rattus norvegicus, UniProt O35458)", "T1 construct": "expressed in transfected cells", "T1 sequence (O35458 1-525)": "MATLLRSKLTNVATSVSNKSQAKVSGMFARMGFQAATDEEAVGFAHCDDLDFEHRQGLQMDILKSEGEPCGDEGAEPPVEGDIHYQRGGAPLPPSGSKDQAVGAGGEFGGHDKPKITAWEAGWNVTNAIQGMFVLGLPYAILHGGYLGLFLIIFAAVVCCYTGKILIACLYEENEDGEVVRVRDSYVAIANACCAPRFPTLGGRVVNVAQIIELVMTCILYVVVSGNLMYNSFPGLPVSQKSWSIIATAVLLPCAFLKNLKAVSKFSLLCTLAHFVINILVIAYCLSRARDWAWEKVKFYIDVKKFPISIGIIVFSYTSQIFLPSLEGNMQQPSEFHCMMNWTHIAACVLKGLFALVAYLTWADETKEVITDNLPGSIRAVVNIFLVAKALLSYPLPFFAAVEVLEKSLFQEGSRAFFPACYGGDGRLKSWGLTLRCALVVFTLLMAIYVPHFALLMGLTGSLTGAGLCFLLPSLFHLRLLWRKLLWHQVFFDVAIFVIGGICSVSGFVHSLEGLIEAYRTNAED", "experiment": "3H-GABA transport assay in vesicles from PC12 cells stably expressing rVGAT (RUNC-47)", "type": "biochemical", "experimental": "Stable PC12 transformants expressing high levels of the putative transport protein were isolated by screening cell clones with fluorescent-tagged antibodies generated against the rat unc-47 homologue RUNC-47. […] A population of light vesicles was then isolated from two stable transformants and purified by differential centrifugation (Example 7).\nHereafter, the terms RUNC-47 and rVGAT are used interchangeably.\nThese studies were carried out in the transport assay detailed in Example 8, using synaptic vesicles prepared from transfected PC-12 cells, as described above and detailed in Example 7.\nBriefly, vesicles were prepared from PC12 cell clone B1 stably expressing rVGAT and from un-transfected cells.\nThe rat unc-47 homologue cDNA subcloned into the plasmid expression vector pcDNA3-Amp (InVitrogen; Carlsbad, Calif.) was introduced into PC12 cells by electroporation (Grote, et al., Cell 81, 581-589, 1995). […] The nuclear debris was sedimented at 100 g for 5 minutes and heavier membranes were eliminated by centrifugation at 27,000 g for 1 hour The remaining light membrane vesicles were sedimented at 65,000 g for 1 hour and resuspended in SH containing the same protease inhibitors at a final concentration of approximately 10 μg protein/μl.\nIncubation was performed at 29° C. for varying intervals and the reaction was terminated by rapid filtration (Supor 200, Gelman; AnnArbor, Mich.), followed by immediate washing with 6 ml cold 0.15 M KCl. Background uptake was determined by incubation at 4° C. for 0 minutes. The bound radioactivity was measured by scintillation counting in 2.5 ml Cytoscint (ICN). […] Nigericin and valinomycin were dissolved in ethanol and added to final concentrations of 5 μM and 20 μM respectively. Transport measurements were performed in duplicate and repeated three or more times using at least two different membrane preparations."}, "[2]": {"biological_target": "T2, vesicular monoamine transporter 1 (VMAT1) (Rattus norvegicus, UniProt Q01818)", "T2 construct": "transport of serotonin by endogenous VMAT1; endogenous in cells; host or cells: PC12 cells (clone B1 stably expressing rVGAT), light membrane vesicles", "T2 sequence (Q01818 1-521)": "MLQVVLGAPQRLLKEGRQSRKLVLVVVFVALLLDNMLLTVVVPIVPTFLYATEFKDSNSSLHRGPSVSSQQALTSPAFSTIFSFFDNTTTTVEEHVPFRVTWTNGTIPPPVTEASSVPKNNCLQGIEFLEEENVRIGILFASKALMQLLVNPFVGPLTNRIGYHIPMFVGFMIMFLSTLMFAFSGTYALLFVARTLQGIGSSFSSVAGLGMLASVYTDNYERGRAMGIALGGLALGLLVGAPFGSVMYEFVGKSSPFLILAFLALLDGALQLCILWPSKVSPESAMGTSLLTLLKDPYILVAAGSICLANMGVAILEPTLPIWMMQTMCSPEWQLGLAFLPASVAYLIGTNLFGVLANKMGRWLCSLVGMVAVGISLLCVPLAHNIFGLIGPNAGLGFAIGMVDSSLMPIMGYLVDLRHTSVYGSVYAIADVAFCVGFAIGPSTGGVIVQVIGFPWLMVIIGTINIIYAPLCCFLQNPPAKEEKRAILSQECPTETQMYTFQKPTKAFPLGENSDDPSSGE", "experiment": "Serotonin transport by endogenous VMAT1 in the same PC12 cell membrane preparations", "type": "biochemical", "description": "Since nigericin inhibits VMAT1 activity on these vesicles to a greater extent (approximately 65%) than it inhibits rVGAT activity, vesicular transport of serotonin has a greater dependence on ΔpH. […] Thus, rVGAT and VMAT1 depend on both components of the electrochemical gradient but VMAT1 depends to a greater extent on ΔpH, consistent with previous results using mixed populations of synaptic vesicles."}, "[3]": {"biological_target": "RUNC-47 (rVGAT) (Rattus norvegicus, UniProt O35458)"}, "[4]": {"substrate": "NCCCC(=O)O", "experiment": "cells, lysate or membranes named", "details": "other: transfected PC12 cell vesicles; uptake measured at 30 seconds; pH 7.4; 29.0 °C"}}, "note": "Like-named read-outs stand apart in the source and are kept apart here."}
{"molecule": "NCCCC(=O)O", "note": "[GABA, gamma-aminobutyric acid]", "values": [{"measurement": "IC50", "setting": "[1]", "result": 4.75, "unit": "mM"}]}
{"molecule": "CO[C@@H]1C[C@@H](C[C@H]2CC[C@H](C)[C@H]([C@@H](C)C(=O)O)O2)O[C@]2(O[C@](C)([C@H]3CC[C@@](C)([C@@H]4O[C@@H]([C@H]5O[C@@](O)(CO)[C@H](C)C[C@@H]5C)C[C@@H]4C)O3)C[C@H]2C)[C@@H]1C", "note": "[nigericin]", "values": [{"measurement": "Inhibition of GABA transport in rVGAT transfected cells", "setting": "[1]; nigericin 5 FM, PC12 clone B1 membranes", "result": "approximately 40%"}, {"measurement": "Inhibition of serotonin transport by endogenous VMAT1", "setting": "[2]; nigericin, membranes from transfected PC12 cells that express VGAT", "result": "approximately 65%"}]}
{"molecule": "C=CC(N)CCC(=O)O", "note": "(stereo not drawn) [gamma-vinyl-GABA]", "values": [{"measurement": "IC50", "setting": "[1]", "result": 7.5, "unit": "mM"}, {"measurement": "Inhibition of rVGAT activity (3H-GABA transport), in words", "setting": "[1]", "result": "as potently as unlabelled GABA"}]}
{"molecule": "N[C@@H](CCC(=O)O)C(=O)O", "note": "[glutamate]", "values": [{"measurement": "Inhibition of rVGAT activity (3H-GABA transport), in words", "setting": "[1]", "result": "does not inhibit rVGAT activity even at extremely high concentrations"}, {"measurement": "IC50", "setting": "[1]; read-out: Inhibition of GABA Transport by Structurally Related Compounds, IC50, vesicles from rVGAT-transfected PC12 cells, about 40 μM GABA including radiolabeled GABA", "result": "> 100", "unit": "mM"}]}
{"molecule": "CC(C)[C@@H]1NC(=O)[C@H](C)OC(=O)[C@@H](C(C)C)NC(=O)[C@@H](C(C)C)OC(=O)[C@H](C(C)C)NC(=O)[C@H](C)OC(=O)[C@@H](C(C)C)NC(=O)[C@@H](C(C)C)OC(=O)[C@H](C(C)C)NC(=O)[C@H](C)OC(=O)[C@@H](C(C)C)NC(=O)[C@@H](C(C)C)OC1=O", "note": "[valinomycin]", "values": [{"measurement": "Effect on rVGAT activity of adding valinomycin to nigericin", "setting": "[1]; valinomycin 20 FM added to nigericin 5 FM, PC12 clone B1 membranes", "result": "eliminates rVGAT activity"}, {"measurement": "Effect on residual VMAT1 activity of adding valinomycin to nigericin", "setting": "[2]; valinomycin added to nigericin, same PC12 membranes", "result": "eliminates the residual VMAT1 activity"}]}
{"molecule": "NCC(=O)O", "note": "[glycine]", "values": [{"measurement": "IC50", "setting": "[1]", "result": 27.5, "unit": "mM"}, {"measurement": "Inhibition of rVGAT activity (3H-GABA transport), in words", "setting": "[1]", "result": "relatively low potency"}, {"measurement": "Uptake of 3H-glycine by RUNC-47 PC-12 vesicle preparations", "setting": "[3]", "result": "no significant uptake"}]}
{"molecule": "CCCC(=O)O", "note": "[n-butyric acid]", "values": [{"measurement": "IC50", "setting": "[1]", "result": 43.5, "unit": "mM"}, {"measurement": "Inhibition of rVGAT activity (3H-GABA transport), in words", "setting": "[1]; vesicles from rVGAT-transfected PC12 cells, about 40 μM GABA", "result": "inhibits both rVGAT activity and GABA transport into brain synaptic vesicles"}]}
{"molecule": "rVGAT (RUNC-47, rat unc-47 homologue) (Rattus norvegicus) (protein) MATLLRSKLTNVATSVSNKSQAKVSGMFARMGFQAATDEEAVGFAHCDDLDFEHRQGLQMDILKSEGEPCGDEGAEPPVEGDIHYQRGGAPLPPSGSKDQAVGAGGEFGGHDKPKITAWEAGWNVTNAIQGMFVLGLPYAILHGGYLGLFLIIFAAVVCCYTGKILIACLYEENEDGEVVRVRDSYVAIANACCAPRFPTLGGRVVNVAQIIELVMTCILYVVVSGNLMYNSFPGLPVSQKSWSIIATAVLLPCAFLKNLKAVSKFSLLCTLAHFVINILVIAYCLSRARDWAWEKVKFYIDVKKFPISIGIIVFSYTSQIFLPSLEGNMQQPSEFHCMMNWTHIAACVLKGLFALVAYLTWADETKEVITDNLPGSIRAVVNIFLVAKALLSYPLPFFAAVEVLEKSLFQEGSRAFFPACYGGDGRLKSWGLTLRCALVVFTLLMAIYVPHFALLMGLTGSLTGAGLCFLLPSLFHLRLLWRKLLWHQVFFDVAIFVIGGICSVSGFVHSLEGLIEAYRTNAED", "values": [{"measurement": "Km", "setting": "[4]", "result": 5, "unit": "mM"}]}
